The conditions of data set [1]: rat, in vivo, iv, 5 mg/kg. The method, then: Polymer-cisplatin was injected subcutaneously to mice at the amount 10, 20, 40 µL per mice that is 4, 8, 16 mg cisplatin/Kg. As controls, 50µL of the drug free polymer was injected and 200 µL IV injection at a dose of 5 mg/kg. The mice were observed daily for morbidity and mortality, and daily for general clinical signs (cage side observation): changes in the skin, fur, eyes, nose, mouth, head, respiration, urine, feces, locomotor, and overall wellness.
An animal showing one of the humane endpoints according to Clinical Signs″, SOP-06-019, were euthanized and subjected to the termination procedure. Blood collection for cisplatin content was at 0(baseline), 1 h, 4 h, 8 h, 24 h,48 h,96 h, 168 h, thereafter once weekly until week 4. Blood for CBC and Biochemistry was at: 0(Baseline), 24 h, 72 h, 168 h thereafter once weekly until sacrifice. For the IV injected mice, plasma was collected at 0(baseline), 5 m, 15 m, 30 m, 1 h, 2 h, 4 h, 8 h, 24 h, 48 h, 72 h, and 96 h. Whole blood and Blood Biochemistry was at 0(Baseline), 24h and 96h. Whole blood was collected from each animal and treated according to common procedures. Urine collection amount was recorded at 0-6, 12-24, 48-72h, 72-96h, 96-120h and once weekly thereafter.

Data set [2] relates to Head and Neck Cancer tumor cells. In words: In vivo testing of the cisplatin formulation for head and neck cancer with radiotherapy. Conditions: nude mice, treatment 20 days after cell injection, 8 Gy irradiation at day 21 and 24, terminated day 50. The method, then:
In this study, 3 experimental groups were used, 6 nude mice per group. All mice were injected with 600000 tumor cells. […] Cisplatin solutions were injected IP for 4 consecutive weeks, a total of 4 administrations. The animals were irradiated with 8 Gy at day 21 and day 24. The experiment was terminated at day 50.

Molecules are shown by their SMILES.

Experimental findings from patent US20230285337A1, “LONG ACTING ANTICANCER COMPOSITIONS” (INTRAGEL THERAPEUTICS LTD., priority 2020, published 2023) are described below.

`[NH2][Pt]([NH2])([Cl])[Cl]` [cisplatin solution, Cisplatin]: in data set [1], the “blood count (HGB, RBG & HCT)” value is “drastic drop in markers”; the body weight result is “lower body weight”; the “kidneys performance (creatinine and urea excretion)” value is recorded as “deteriorated kidneys performance”; the “side effects, behaviour after injection” value is “severe side effects”. In addition, in data set [2], the “effect on the tumor (tumor size)” value is reported as “did not show any effect on the tumor”.
